Source: patent publication US20230107216A1, “PANTETHEINE DERIVATIVES AND USES THEREOF” (Comet Therapeutics, Inc., priority 2018, published 2023)
Read-outs that look alike come from different tables or passages of the source.

Test system: Peripheral blood mononuclear cells co-cultured with venular endothelial cells (HUVEC) (LPS system)
Assay: BioMAP LPS system
Assay type: cell-based, human
Conditions: procedure of Example 827
[1] = Homo sapiens, HUVEC, 24 h, 1 uM, read-out: % decrease in IL-8
[2] = Homo sapiens, HUVEC, 24 h, 1 uM, read-out: % decrease in sPGE2
[3] = Homo sapiens, HUVEC, 24 h, 10 uM, read-out: % decrease in IL-1α
[4] = Homo sapiens, HUVEC, 24 h, 10 uM, read-out: % decrease in TissueFactor
[5] = Homo sapiens, HUVEC, 24 h, 10 uM, read-out: % increase in sTNFα
[6] = Homo sapiens, HUVEC, 24 h, 10 uM, read-out: % decrease in sPGE2
[7] = Homo sapiens, HUVEC, 24 h, 10 uM, read-out: % decrease in IL-8

COC(=O)CCC(=O)SCCNC(=O)CCNC(=O)[C@H](OC(=O)CNC(C)=O)C(C)(C)CO [Compound 1298, methyl 4-[(2-[3-[(2R)-2-[(2-acetamidoacetyl)oxy]-4-hydroxy-3,3-dimethylbutanamido]propanamido]ethyl)sulfanyl]-4-oxobutanoate]
% decrease in M-CSF (1 uM): ≥20% | % decrease in sTNFα (1 uM): ≥10% | % decrease in Thrombomodulin (10 uM): ≥10% | inhibition at 1 µM [1]: ≥ 10% | inhibition at 1 µM [2]: ≥ 20% | inhibition at 10 µM [3]: ≥ 10% | inhibition at 10 µM [4]: ≥ 10% | activation at 10 µM [5]: ≥ 10%

COC(=O)CCC(=O)SCCNC(=O)CCNC(=O)[C@H](OC(=O)CN)C(C)(C)CO [Compound 1294, methyl 4-[(2-[3-[(2R)-2-[(2-aminoacetyl)oxy]-4-hydroxy-3,3-dimethylbutanamido]propanamido]ethyl)sulfanyl]-4-oxobutanoate]
inhibition at 1 µM [1]: ≥ 10% | activation at 1 µM (Homo sapiens, HUVEC, 24 h, 1 uM, read-out: % increase in sTNFα): ≥ 10% | inhibition at 10 µM [4]: ≥ 10% | inhibition at 10 µM [6]: ≥ 10%

COC(=O)CC(SCCNC(=O)CCNC(=O)[C@H](O)C(C)(C)COC(C)=O)C(=O)OC (stereo partly drawn) [Compound 149, 1,4-dimethyl 2-[(2-[3-[(2R)-4-(acetyloxy)-2-hydroxy-3,3-dimethylbutanamido]propanamido]ethyl)sulfanyl]butanedioate]
% increase in Tissue Factor (1 uM): ≥10% | % increase in IL-8 (10 uM): ≥10% | inhibition at 10 µM [3]: ≥ 10% | inhibition at 10 µM [4]: ≥ 20% | inhibition at 10 µM [6]: ≥ 10%

CC(=O)SCCNC(=O)CCNC(=O)[C@H](O)C(C)(C)COC(=O)[C@H](C)N [Compound 502, (3R)-3-[(2-[[2-(acetylsulfanyl)ethyl]carbamoyl]ethyl)carbamoyl]-3-hydroxy-2,2-dimethylpropyl (2S)-2-aminopropanoate]
inhibition at 10 µM [7]: ≥ 10% | inhibition at 10 µM [4]: ≥ 10% | inhibition at 10 µM [6]: ≥ 10%

CCCCCCC(=O)SCCNC(=O)CCNC(=O)[C@H](O)C(C)(C)CO [Compound 372, (2R)—N-(2-[[2-(heptanoylsulfanyl)ethyl]carbamoyl]ethyl)-2,4-dihydroxy-3,3-dimethylbutanamide]
inhibition at 1 µM (Homo sapiens, HUVEC, 24 h, 1 uM, read-out: % decrease in IL-1α): ≥ 10% | inhibition at 10 µM [7]: ≥ 20% | inhibition at 10 µM [4]: ≥ 10% | activation at 10 µM [5]: ≥ 10%

COC(=O)CCC(=O)SCCNC(=O)CCNC(=O)[C@H](O)C(C)(C)COC(C)=O [Compound 138]
% increase in Tissue Factor (1 uM): ≥10% | inhibition at 1 µM [2]: ≥ 10%
